Data reported in patent EP2698385A1, “Detection of synthetic cannabinoids” (priority 2012, dated 2014).

Experiments:
Assay type in all cases: binding, sheep
[1] = tested on: Antibody to Immunogen I; settings: Cross-reactants at 100 ng/ml; Antibody to Immunogen I
Method: (§1) An aqueous solution of each immunogen was formulated with Freund's Complete Adjuvant (FCA) to form an emulsion consisting of 2mg/ml* immunogen in 50% (v/v) FCA. Three sheep were immunised with this emulsion (1° immunisation), 0.25ml being intramuscularly injected at each of four sites in the flank of each animal. Subsequent immunizations (boosts) contained 1mg/ml* immunogen. All boosts were emulsified in 50% (v/v) Freund's Incomplete Adjuvant (FIA) and were administered in the same manner as the 1° immunisation, at monthly intervals. Blood sampling took place 7 to 14 days after each boost. *The general procedure for immunogen administration is outlined above, however, it was necessary to deviate from this protocol in some cases, due to reduced immunogen concentrations (Immunogens II, IV, VII and VIII) and/or amount available (Immunogen VIII). Any deviations from the protocol described are outlined in Table 1A below and highlighted in bold. Table 1A: Amount and volume of immunogens administered for primary and subsequent boosts
(§2) The wells of an enhanced binding 96 well polystyrene microtiter plate were coated with IgG fraction of antiserum raised to Immunogen I or II, diluted in 10mM Tris, pH8.5 (125µl/well). The appropriate antibody coating dilution was determined using standard ELISA checkerboard techniques. The plate was incubated overnight at 4°C, washed 4 times over 10 minutes with Tris buffered saline containing Tween 20 (TBST) and tapped dry. Standard solutions (JWH-018 for Immunogens I and II) were applied at 0, 0.625, 1.25, 2.5, 5, 10, 20 and 40ng/ml and 50µl of each was added to the appropriate wells. 75µl of conjugate (appropriate hapten-HRP) diluted in Tris buffer (pH 7.2) containing EDTA, D-mannitol, sucrose, thimerosal and BSA, was added to each of the wells. The appropriate dilution of conjugate was also determined using standard ELISA checkerboard techniques. The plate was incubated at 25°C for 1 hour. Excess unbound conjugate was removed by washing 6 times over a 10 minute period with TBST. 125µl of tetramethylbenzidine (TMB) substrate solution was added to each well of the plate that was then incubated for 20 minutes in the dark at room temperature. The reaction was terminated by addition of 125µl 0.2M H2SO4 to each well. The absorbance was then measured at 450nm using a microtiter plate reader. The data are inputted to a computer program called 'KC Junior'. It is a 4 parameter fit curve and allow the calculatation of concentrations between the standard runs. This program is used to calculate the IC50s by dividing the 0ng/ml OD value by 2 and obtaining the concentration value from the curve for this OD.
In a similar manner to that described above, the wells of a 96-well microtiter plate were coated with the IgG fraction of the antiserum raised to Immunogens I or II. Standard solutions (JWH-018 for Immunogen I and II) were applied at 0, 0.625, 1.25, 2.5, 5, 10, 20 and 40ng/ml and conjugate was employed as detection reagent.
(§3) The data set our in Tables 3 and 4 are generated using antibodies raised against the indicated Immunogens in a competitive binding assay with the indicated tracers, using the indicated standards: Table 2
(§4) A450 = absorbance at 450nm B = absorbance at 450nm at xng/ml standard concentration B0 = absorbance at 450nm at 0ng/ml standard concentration IC50 = standard concentration which produces 50% B/B0
(§5) In order to determine the specificity of the competitive ELISAs, standard solutions of a range of structurally similar synthetic cannabinoids and their metabolites were prepared in TBST. Using the calibration curves generated and employing a single level of cross reactants, these were used to determine the cross-reactivity of each immunoassay with these substances. […]

[2] = tested on: Antibody to Immunogen II; assay: Competitive ELISA (Example 36), antibody RS1833B12, tracer ESC4555/LK959, standard JWH-018; settings: Cross-reactants at 100 ng/ml; Antibody to Immunogen II
Method: as §1
as §2, with “The” for “The wells of an enhanced binding 96 well polystyrene microtiter plate were coated with IgG fraction of antiserum raised to Immunogen I or II, diluted in 10mM Tris, pH8.5 (125µl/well). The”, “Standard solutions (JWH-018 for Immunogens I and II) were applied at 0, 0.625, 1.25, 2.5, 5, 10, 20 and 40ng/ml and 50µl of each was added to the appropriate wells.” left out, “runs.” for “runs. This program is used to calculate the IC50s by dividing the 0ng/ml OD value by 2 and obtaining the concentration value from the curve for this OD.”
In a similar manner to that described above, the wells of a 96-well microtiter plate were coated with the IgG fraction of the antiserum raised to Immunogens I or II.
as §3
Using the calibration curves generated and employing a single level of cross reactants, these were used to determine the cross-reactivity of each immunoassay with these substances. These are the standards used for the IC50 and cross-reactivity data generation • Immunogen I - JWH-018 • Immunogen II - JWH-018 • Immunogen IV - JWH-018 • Immunogen VII - JWH-015 • Immunogen VIII - JWH-018 Table 4: Cross reactivity of the competitive ELISAs for synthetic cannabinoids and their metabolites

[3] = tested on: Antibody to Immunogen IV; settings: Cross-reactants at 100 ng/ml; Antibody to Immunogen IV
Method: as §1, §2
(§6) In a similar manner to that described above, the wells of a 96-well microtiter plate were coated with the IgG fraction of the antiserum raised to Immunogens IV, VII or VIII. Standard solutions (JWH-018 for Immunogens IV and VIII, JWH-015 for Immunogen VII) were prepared in TBST at 0, 1.25, 2.5, 5, 10, 20, 40 and 80ng/ml and conjugate was employed as detection reagent.
as §3, §4, §5

[4] = tested on: Antibody to Immunogen VIII; settings: Cross-reactants at 100 ng/ml; Antibody to Immunogen VIII
Method: as §1, §2, §6, §3, §4, §5

[5] = tested on: Antibody to Immunogen VII; settings: Cross-reactants at 100 ng/ml; Antibody to Immunogen VII
Method: as §1, §2, §6, §3, §4, §5

Molecule | %B/B0 [1] [%] | %B/B0 [2] [%] | %B/B0 [3] [%] | %B/B0 [4] [%] | %B/B0 [5] [%]
CC(O)CCCn1cc(C(=O)c2cccc3ccccc23)c2ccccc21 (racemic) [(±)-JWH 018 N-(4-hydroxypentyl) metabolite] | 4.23 | 53.99 | 52.29 | 21.94 | 57.37
CC(F)CCCn1cc(C(=O)c2cccc3ccccc23)c2ccccc21 (single isomer, unassigned) [AM-2201 N-(4-fluoropentyl) isomer] | 3.45 | 14.60 | 5.72 | 15.00 | 52.70
CC(C)C(C)n1cc(C(=O)c2cccc3ccccc23)c2ccccc21 (single isomer, unassigned) [JWH 018 N-(1,2-dimethylpropyl) isomer] | 6.60 | 71.33 | 87.11 | 67.71 | 62.29
CCCC(C)n1cc(C(=O)c2cccc3ccccc23)c2ccccc21 (single isomer, unassigned) [JWH-018 N-(1-methylbutyl) isomer] | 12.42 | 51.92 | 73.49 | 63.22 | 67.71
CCC(C)Cn1cc(C(=O)c2cccc3ccccc23)c2ccccc21 (single isomer, unassigned) [JWH-018 N-(2-methylbutyl) isomer (JWH-073 2-methylbutyl homologue), JWH-018 N-(2-methylbutyl) isomer] | 3.61 | 28.60 | 29.88 | 85.16 | 58.84
CS(=O)(=O)O.Cc1c(C(=O)c2cccc3ccccc23)c2cccc3c2n1[C@H](CN1CCOCC1)CO3 [(+)WIN 55212-2 (mesylate), (+)WIN 55212-2] | 17.00 | 83.87 | 92.76 | 107.12 | 24.08
O=C(c1cccc(I)c1)c1cn(CCCCCF)c2ccccc12 [AM-694 3-iodo isomer] | 31.37 | 48.58 | 37.20 | 12.71 | 89.49
O=C(c1ccccc1I)c1cn(CCCCCF)c2ccccc12 [AM-694] | 12.17 | 36.18 | 11.30 | 11.92 | 75.66
CN1CCCCC1Cn1cc(C(=O)c2cccc3ccccc23)c2ccccc21 (stereo not drawn) [AM-1220] | 4.45 | 77.46 | 86.93 | 106.65 | 49.71
O=C(c1cccc2ccccc12)c1cn(CCCC(O)CF)c2ccccc12 (stereo not drawn) [AM-2201 N-(4-hydroxypentyl) metabolite] | 3.80 | 46.55 | 43.62 | 36.41 | 52.75
O=C(c1cccc2ccccc12)c1cn(CCCCCF)c2ccccc12 [AM-2201] | 3.72 | 11.72 | 6.20 | 16.74 | 55.28
CN1CCCCC1Cn1cc(C(=O)c2ccccc2I)c2ccccc21 (stereo not drawn) [AM-2233] | 16.97 | 86.43 | 92.10 | 91.25 | 72.46
CS(=O)(=O)O.Cc1c(C(=O)c2cccc3ccccc23)c2cccc3c2n1[C@@H](CN1CCOCC1)CO3 [Win 55,212-3 mesylate, Win 55,212-3] | 34.00 |  | 94.57 | 101.30 | 32.31
(+)-CP 55,940 | 103.25 |  | 91.38 | 95.12 | 97.15
(+-)-CP 55,940 [((+-)-CP 55,940)] | 100.61 |  | 94.60 | 100.25 | 100.25
(-)-CP 55,940 | 98.27 |  | 93.02 | 97.58 | 101.15
JWH 203 3-chloro isomer [JWH 203 3-chloro isomer (JWH-237)] | 95.59 |  | 55.09 | 10.34 | 97.42
JWH-081 2-methoxynaphthyl isomer [JWH-081 2-methoxynaphthyl isomer or (JWH-267)] | 69.58 |  | 27.67 | 58.20 | 83.43
